Assay results as given in patent US20260130966A1, “NOVEL THERAPEUTICS FOR PARASITIC INFECTION” (UNIVERSITY OF SOUTH FLORIDA, priority 2022, published 2026).
Converted amounts (≈) assume the structure as drawn. “And” between values parts separate entries of the source, which are not always exact repeats. Equal entries are not always repeated. “Also recorded” adds a separate entry of the source. Where two headings read alike, the source gives them in different places. Where a SMILES comes first, the peptide text is derived from it. [ ]: non-standard residue; d: D form. The star is where a group is joined. ξ: configuration not given here. Phe(Nα-CONH2) = NC(=O)N[C@@H](Cc1ccccc1)C(=O)*; NMeI = CC[C@H](C)[C@H](NC)C(=O)O; NMeξIle = CC[C@H](C)C(NC)C(=O)O; X1 = CN(/C=C\c1c[nH]c2ccccc12)*; NMeL = CN[C@@H](CC(C)C)C(=O)O; NMeV = CN[C@H](C(=O)O)C(C)C; NMeA = CN[C@@H](C)C(=O)O; For = O=C*

Experiments:
[1] = test system: Leishmania donovani; experiment: Leishmania donovani infected macrophage assay; format: cell-based
Experimental: The Leishmania donovani infected macrophage assay and cytotoxicity screen were conducted as previously described.

[2] = test system: P. falciparum Dd2; experiment: microbe, parasite or virus in culture; format: cell-based, Plasmodium falciparum
Experimental: (§1) For parasite suspension, P. falciparum malaria strains were grown under normal conditions as previously described by Trager and Jensen with some modifications.” Briefly, parasites were suspended in RPMI 1640 supplemented with 0.23% sodium bicarbonate, […] hypoxanthine and 0.5% albumax (CM), 4% packed washed red blood cells by volume and incubated in a continuous gas incubator set to normal conditions (5% O2, 5% CO2, […]). Parasites were prepared for drug susceptibility assay by highly synchronizing schizonts 16 h before experiment start by using a 70% percoll method. Ring stage parasites were then resuspended in culture with fresh CM containing 2% hematocrit and 0.5% parasitemia.
(§2) Antimalaria activity was assessed against reference strains of NF54, 3D7 and Dd2 using an adaptation of the sensitivity assay of Desjardins et al. using SybrGreen fluorescence as an assessment of parasite growth.^32 NF54 original isolate was obtained from a patient living near Schiphol Airport, Amsterdam and its clonal isolate 3D7 are generally considered to be drug sensitive, though 3D7 does convey resistance to sulfadoxine. Dd2 derived from the parent W2, is multi-drug-resistant line originating from the Indochina III/CDC isolate, which contain point mutations in pfcrt as well as amplifications in pfmdr1 and GTP cyclohydrolase. Briefly, compounds were diluted to 10 μg/mL and serially diluted along a microtiter plate before adding in 100 μL/well of the parasite suspension. Parasite growth was compared to controls incubated at 37° C. and normal culture conditions (5% O2, 5% CO2, 90% N2) for 72 h. Plates were frozen and thawed before adding a final 1× concentration of SybrGreen in lysis buffer and read on the CLARIOstar fluorescence plate reader (Ex/Em 484-15/528-15) following a 45 min incubation at room temperature. Drug EC50 values were calculated by interpolation of the probit transformation of the log(dose)-response curve using the MARS software provided by BMG.

[3] = test system: P. falciparum 3D7; experiment: microbe, parasite or virus in culture; format: cell-based, Plasmodium falciparum
Experimental: as §1, §2

[4] = test system: P. falciparum NF54; experiment: microbe, parasite or virus in culture; format: cell-based, Plasmodium falciparum
Experimental: as §1, §2

[5] = test system: murine J774 macrophage cells; experiment: Cytotoxicity testing against murine J774 macrophage cells (CellTiter 96); format: cell-based
Experimental: The isolated compounds were each tested for cytotoxicity using mammalian J774A.1 cell lines (ATCC TIB-67™) in complete media; RPMI 1640 medium with phenol red containing L-glutamine and then supplemented with 10% fetal bovine serum (CM). Cells were seeded at 5×10^5 cell/mL and plated in a 96-well format with 100 μL/well fresh media on day 0 and were incubated overnight at 37° C., 5% CO2 for adherence. Following 24 h incubation, spent media was removed and 100 μL of fresh media with test compounds were serially diluted 1:2 with a starting concentration of 10 μg/mL was added to the cells and incubated for an additional 68 h before adding in 20 μL CellTiter 96® AQueous One Solution Cell Proliferation Assay reagent (Promega). Cells were incubated for an additional 4 h before reading absorbance (490) nm on the CLARIOstar plate reader.

[6] = test system: ESKAPE panel of bacterial pathogens; experiment: ESKAPE panel antibacterial screen; format: cell-based
[7] = test system: Blood-Stage P. falciparum Strains; experiment: Initial blood-stage screen against several P. falciparum strains; format: cell-based, Plasmodium falciparum
Experimental: as §1, §2

[8] = test system: C. difficile UK6; experiment: C. difficile MIC screening; format: cell-based, Clostridium difficile; details: Clostridioides difficile, UK6
[9] = test system: HEK293T; experiment: MTT cytotoxicity, human kidney HEK293T cells; format: cell-based; details: HEK293T, same concentrations alcyopterosins were assayed
Experimental: (§3) The cytotoxicity of the metabolites to human liver cells and kidney cells was determined using an MTT based-In Vitro Toxicology Assay Kit (Sigma-Aldrich, St. Louis, MO, USA) following the manufacturing instructions. The human kidney HEK293T cells and the human liver HEPGZ cells were used for the evaluation in this study. Both cell samples were maintained and suspended in Dulbecco's Modified Eagle Medium (DMEM with 4.5 g/L glucose, L-glutamine and sodium pyruvate, Corning, Manassas, VA, USA) containing 10% fetal bovine serum (Thermo Scientific) and 1% penicillin/streptomycin at 37° C. under 5% CO2 atmosphere. The cells were plated on a 96-well plate with approximately 5×10^3-1×10^4 cells in each well, and incubated at 37° C. overnight. […] After that, the liquid in each well of the plate was removed carefully and thoroughly, then the cells in the wells were treated with 100 μL of DMSO, and incubated at 37° C. for 15 m. […] Bio Tek Instruments, Inc. Winooski VT). Cells treated with vancomycin, a common option for treating CDI in clinical settings, were also included in the MTT tests as a control. Cell survival and the IC50 were calculated according to the method used in a previous publication: Survival of cells (%)=Drug-treated group OD540/control group OD540×100.

[10] = test system: HepG2; experiment: MTT cytotoxicity, human liver HepG2 cells; format: cell-based; details: HepG2, same concentrations alcyopterosins were assayed
Experimental: as §3

[11] = cytotoxicity, murine J774 macrophage cells, read-out: EC50

Compound	IC50 ([2]; Dd2)	IC50 ([3]; 3D7)	IC50 ([4]; NF54)	EC50 (μg/mL) [5]	EC50 [5, 11]	also measured
4,12-Bis(acetyl)alcyopterosin O [Compound C8]						IC50 [1]: 1.2 µM
CCN(CC)CCCC(C)Nc1ccnc2cc(Cl)ccc12 (stereo not shown) [Chloroquine, reference compound]						IC50 ([2]; Plasmodium falciparum, DD2, read-out: IC50 Values against Blood-Stage P. falciparum Strains: Dd2): 1.28 µM; IC50 ([3]; Plasmodium falciparum, 3D7, read-out: IC50 Values against Blood-Stage P. falciparum Strains: 3D7): 0.03 µM; IC50 ([4]; Plasmodium falciparum, NF54, read-out: IC50 Values against Blood-Stage P. falciparum Strains: NF54): 0.03 µM; EC50 ([5]; Mus musculus, J774): 16.3 µg/mL and 51 µM
CC(=O)O[C@@H]1[C@H](OC(C)=O)[C@H]([C@H](C)CCCC(C)C)[C@@]2(C)C[C@@H](OC(C)=O)[C@H]3[C@@H](C[C@@H](O)[C@H]4CC=CC(=O)[C@]34C)[C@H]12 [Compound C5, alcyosterone]						IC50 ([1]; Macrophage): 1.5 µM; activity against the ESKAPE panel [6]: inactive
Cc1cc2c(c(C)c1CCO[N+](=O)[O-])CC(C)(C)C2=O [Compound C6, alcyopterosin C]						IC50 [1]: 13 µM
Cc1cc2c(c3c1[C@@H](CCl)OC3=O)CC(C)(C)[C@@H]2O [Compound C9, alcyopterosin L]						IC50 [1]: 2.4 µM
CC[C@H](C)[C@@H](C(=O)N(C)/C=C\c1c[nH]c2ccccc12)N(C)C(=O)[C@H](C(C)C)N(C)C(=O)[C@H](C(C)C)N(C)C(=O)[C@H](CC(C)C)N(C)C(=O)[C@@H]1CCCN1C(=O)[C@H](Cc1ccccc1)NC(=O)[C@H](Cc1ccccc1)NC(C)=O [Compound P2, friomaramide B] (Ac-FFP[NMeL][NMeV][NMeV][NMeI]-X1)	3.3 µM	8.65 µM	3.93 µM	26.7 µg/mL (≈ 24.6 µM)		EC50 [5]: 24.6 µM; blood-stage anti-malarial activity [7]: modest activity
CC[C@H](C)[C@@H](C(N)=O)N(C)C(=O)[C@H](C(C)C)N(C)C(=O)[C@H](CC(C)C)N(C)C(=O)[C@H](Cc1ccccc1)N(C)C(=O)[C@H](Cc1ccccc1)NC=O [Compound P3, shagamide A]	1.72 µM	2.1 µM	2.61 µM	>100 µg/mL	> 100 µM	activity against the 3D7 strain ([3]; blood stage, strain 3D7): comparable activity
CC[C@H](C)C(C(=O)N(C)[C@H](C(=O)NC)[C@@H](C)CC)N(C)C(=O)[C@H](C(C)C)N(C)C(=O)[C@H](C)N(C)C(=O)[C@H](C(C)C)N(C)C(=O)[C@H](C(C)C)N(C)C(=O)[C@@H](NC=O)C(C)C (stereo partly shown) [Compound P4, shagamide B] (For-V[NMeV][NMeV][NMeA][NMeV][NMeξIle][NMeI]-NHMe)	4.37 µM	> 10 µM	> 10 µM	>100 µg/mL	> 100 µM	blood-stage anti-malarial activity [7]: did not show significant activity; also recorded: inactive
CNC(=O)[C@H](C(C)C)N(C)C(=O)[C@H](C(C)C)N(C)C(=O)[C@H](C(C)C)N(C)C(=O)[C@H](C)N(C)C(=O)[C@H](C)N(C)C(=O)[C@H](CC(C)C)N(C)C(=O)[C@H](C(C)C)N(C)C(=O)[C@H](Cc1ccccc1)NC=O [Compound P5, shagamide C] (For-F[NMeV][NMeL][NMeA][NMeA][NMeV][NMeV][NMeV]-NHMe)	1.07 µM	2.52 µM	3.73 µM	>100 µg/mL	> 100 µM	inhibition of strain 3D7 ([3]; blood stage, strain 3D7): 2.52 µg/mL
CNC(=O)[C@H](C(C)C)N(C)C(=O)[C@H](C(C)C)N(C)C(=O)[C@H](C(C)C)N(C)C(=O)[C@H](C)N(C)C(=O)[C@H](C)N(C)C(=O)[C@H](CC(C)C)N(C)C(=O)[C@H](C(C)C)N(C)C(=O)[C@H](Cc1ccccc1)NC(N)=O [Compound P6, shagamide D] ({Phe(Nα-CONH2)}-[NMeV][NMeL][NMeA][NMeA][NMeV][NMeV][NMeV]-NHMe)	2.02 µM	> 10 µM	3.05 µM	>100 µg/mL	> 100 µM	activity against the 3D7 strain ([3]; blood stage, strain 3D7): inactive
CC[C@H](C)[C@@H](C(=O)NC)N(C)C(=O)[C@H](C)N(C)C(=O)[C@H](C(C)C)N(C)C(=O)[C@H](C(C)C)N(C)C(=O)[C@H](C)N(C)C(=O)[C@H](C(C)C)N(C)C(=O)[C@H](C(C)C)N(C)C(=O)[C@H](C)N(C)C(=O)[C@H](C)NC(C)=O [Compound P7, shagamide E] (Ac-A[NMeA][NMeV][NMeV][NMeA][NMeV][NMeV][NMeA][NMeI]-NHMe)	> 10 µM	> 10 µM	> 10 µM	>100 µg/mL	> 100 µM	blood-stage anti-malarial activity [7]: did not show significant activity
CC[C@H](C)[C@@H](C(=O)N(C)[C@@H](C)C(=O)N(C)[C@H](C(N)=O)C(C)C)N(C)C(=O)[C@H]([C@@H](C)CC)N(C)C(=O)[C@H](C)N(C)C(=O)[C@H](C(C)C)N(C)C(=O)[C@H](C)N(C)C(=O)[C@@H](NC(C)=O)C(C)C [Compound P8, shagamide F] (Ac-V[NMeA][NMeV][NMeA][NMeI][NMeI][NMeA][NMeV]-NH2)	> 10 µM	> 10 µM	> 10 µM	>100 µg/mL	> 100 µM	blood-stage anti-malarial activity [7]: did not show significant activity
CN[C@H](CC(C)C)C(=O)N[C@H]1C(=O)N[C@@H](CC(N)=O)C(=O)N[C@H]2C(=O)N[C@H]3C(=O)N[C@H](C(=O)N[C@H](C(=O)O)c4cc(O)cc(O)c4-c4cc3ccc4O)[C@H](O)c3ccc(c(Cl)c3)Oc3cc2cc(c3O[C@@H]2O[C@H](CO)[C@@H](O)[C@H](O)[C@H]2O[C@H]2C[C@](C)(N)[C@H](O)[C@H](C)O2)Oc2ccc(cc2Cl)[C@H]1O [Vancomycin, reference compound]						MIC [8]: 0.34 µM (≈ 0.493 µg/mL); toxicity to host cells [9]: non-toxic; toxicity to host cells [10]: non-toxic
CCCCCCCCCCCCCCCCOP(=O)([O-])OCC[N+](C)(C)C [miltefosine, reference compound]						IC50 ([1]; Macrophage): 6.2 µM
